Assay results as given in PubChem BioAssay AID179 (DTP/NCI, 2004).
Active and inactive are the calls of the source.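 Rule for the calls: active = compounds giving half or more protection of infected cells from virus-caused growth loss, again on retest; inactive = the rest.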 Where a SMILES comes first, the peptide text is derived from it. Bridges are numbered along the chain shown (N, C = ends). [ ]: non-standard residue; d: D form. Aib = CC(C)(N)C(=O)O; βAla = NCCC(=O)O

System: CEM cells HIV-1 protection, formazan growth assay
Assay: NCI AIDS Antiviral Assay
Details: for IC50: measured here: growth of uninfected CEM cells
In short: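 Soluble formazan readout of cell growth; CEM cells ± HIV-1; 5 drug concs. ≥50% protection → retest; ≥50% again = moderately active; reproducible 100% = confirmed active.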

| Structure (SMILES) | outcome | EC50 | IC50 |
| --- | --- | --- | --- |
| O=C1CCCCC1CN1CCOCC1 (stereo not given) | inactive |  |  |
| Nc1nc(Cl)c2[nH]c(Cl)nc2n1 |  | > 200 µM | 132 µM |
| CC(C)(C)OC1=C(OC(C)(C)C)C(O)(c2ccc(Cl)cc2)C1=O (stereo not given) | inactive |  |  |
| Cc1c(/C=C/C(=O)O)no[n+]1[O-] |  | > 200 µM | > 200 µM |
| COc1ncc(C#CC(=O)c2ccccc2OC)c(OC)n1 |  | > 0.2 µM | 0.132 µM |
| COc1ccc(OC)c(-c2csc(=O)s2)c1 |  | > 269 µM | > 269 µM |
| CC(C)(C)[Si](C)(C)OCC1OC(n2ccc(=O)[nH]c2=O)C(O[Si](C)(C)C(C)(C)C)/C1=C/CO (stereo not given) |  | > 200 µM | 8.32 µM |
| C=CC(C)(C)C(=C)C(=O)Nc1ccccc1I |  | > 200 µM | > 200 µM |
| CC1(C)OCC(CO)(CO)CO1 |  | > 1410 µM | > 1410 µM |
| Cc1ccc2[nH]c3c(c2c1)[n+]([O-])c1ccccc1[n+]3[O-] |  | > 200 µM | 38.9 µM |
| Cc1cn(C2CCC(CO)(CF)O2)c(=O)[nH]c1=O (stereo not given) |  | > 200 µM | > 200 µM |
| Cc1[nH]c2ccccc2c1C1Cc2ccccc2N1C(=O)/C(C#N)=C/c1ccccc1 (stereo not given) |  | > 12.9 µM | 2.29 µM |
| N#CCCN(CCC#N)c1ccc(/C=C2\N=C(c3ccccc3)N(c3ccc(C(=O)O)cc3)C2=O)cc1 |  | > 200 µM | 33.9 µM |
| COC1/C=C/OC2(C)Oc3c(C)c(O)c4c(O)c(c(/C=N/NC5OC(COC(=O)c6ccccc6)C(OC(=O)c6ccccc6)C5OC(=O)c5ccccc5)c(O)c4c3C2=O)NC(=O)C(C)=C/C=C/C(C)C(O)C(C)C(O)C(C)C(OC(C)=O)C1C (stereo not given) |  | > 200 µM | 14.5 µM |
| N#CCC(=O)N/N=C\C(O)C(O)C(O)C(O)CO (stereo not given) | inactive |  |  |
| COC(C(=O)NCCCCNC(=O)C(OC)c1ccccc1)c1ccccc1 (stereo not given) | inactive |  |  |
| CCCCC[C@@H]1CCC[C@H]2NC(CCCCC3OCCO3)CC[C@@H]12 (stereo not given in full) | inactive |  |  |
| CN(CCc1ccccn1)C(=S)N/N=C(\c1ccccc1)c1ccccn1 |  | > 0.2 µM | 0.0132 µM |
| O=[N+]([O-])c1c(Cl)cccc1-c1c[nH]cc1Cl |  | > 263 µM | 61.7 µM |
| CCN(CC)c1ccc(N=O)c(O)c1 |  | > 200 µM | 8.71 µM |
| CCOC(=O)C(CS)NC(=O)CCCCCCCC(=O)O (stereo not given) |  | > 100 µM | 79.4 µM |
| CC12CC(OC(=O)[C@]1(C)O)[C@@H]([C@]1(O)CC[C@H]3[C@@H]4C[C@H]5O[C@]56[C@@H](O)C=CC(=O)[C@]6(C)[C@H]4CC[C@@]31C)C2 (stereo not given in full) |  | > 3.89 µM | 0.145 µM |

| Structure (SMILES) | outcome | EC50 | IC50 |
| --- | --- | --- | --- |
| Cc1ccccc1Nc1nc2ccccc2nc1NS(=O)(=O)c1ccccc1 |  | > 200 µM | > 200 µM |
| COC(=O)C[C@@H]1C(C)(C)[C@@H]2O[C@@]34C[C@@H]2C(=O)[C@]1(C)[C@H]3CC[C@@]1(C)[C@H](c2ccoc2)OC(=O)C[C@]14O |  | > 200 µM | 120 µM |
| CCc1n[nH]c(=O)n1-c1ccncc1 |  | > 200 µM | > 200 µM |
| NC(CO)Cc1cnc[nH]1 (stereo not given) |  | > 200 µM | > 200 µM |
| COc1ccc(C(=C2C=CC=C2)c2ccc(OC)cc2)cc1 |  | > 200 µM | 52.5 µM |
| COc1cc(C2c3cc4c(cc3C(O)[C@H]3COC(=O)[C@@H]23)OCO4)cc(OC)c1O (stereo not given in full) |  | > 200 µM | 1.12 µM |
| O=C(O)C1(c2ccccc2)CCCNCC1 (stereo not given) |  | > 6170 µM | > 6170 µM |
| O=[N+]([O-])/C=C/c1ccc(O)cc1 | inactive |  |  |
| Cc1cn(C2CC3OP(=O)(OCc4ccccc4)OCC3O2)c(=O)[nH]c1=O (stereo not given) |  | > 3.63 µM | > 3.63 µM |
| CC1(C)CC(=O)C2=C(C1)NC(SSC1=C(C#N)C(c3ccc(Br)cc3)C3=C(CC(C)(C)CC3=O)N1)=C(C#N)C2c1ccc(Br)cc1 (stereo not given) |  | 36.3 µM | 52.5 µM |
| CC1=[N+]([O-])C(C)(C)N(N=O)C1(C)C |  | > 200 µM | > 200 µM |
| O=C(N/N=C\c1ccccn1)c1ccncc1 |  | > 200 µM | 91.2 µM |
| O=C1/C(=C/c2ccccc2)CCCC12C(c1ccccc1)N2Cc1ccccc1 (stereo not given) |  | > 200 µM | 7.41 µM |
| c1ccc(C2N3CCCCC3[C@@H]3c4[nH]c5ccccc5c4CCN23)cc1 (stereo not given in full) |  | > 20.9 µM | > 20.9 µM |
| CC(NCCCNC(C)C(=O)O)C(=O)O (stereo not given) |  | > 661 µM | > 661 µM |
| Cc1cn(C2CC(NC(=O)NO)C(CO)O2)c(=O)[nH]c1=O (stereo not given) |  | > 200 µM | > 200 µM |
| COc1ccc(C=O)c(NC(=O)C(C)C)c1 | inactive |  |  |
| CC(=NC1C2CC3CC(C2)CC1C3)c1ccc(N=NC2C(=O)NN=C2C)cc1 (stereo not given) |  | > 10 µM | > 10 µM |
| O=C(/C=C/c1ccccc1)/C=C/c1ccccc1O |  | > 145 µM | 61.7 µM |
| COc1ccc(-c2c(C#N)c(S)n(NS(=O)(=O)c3ccc(C)cc3)c(=O)c2C#N)cc1 |  | > 200 µM | 9.33 µM |
| COc1c(Cl)cc(C(=CCN[C@@H]2CC[C@@]3(C)[C@@H](CC[C@@H]4[C@@H]3CC[C@]3(C)[C@@H]([C@H](C)CCCC(C)C)CC[C@@H]43)C2)c2cc(Cl)c(OC)c(C(=O)O)c2)cc1C(=O)O |  | > 100 µM | 61.7 µM |
| CCCOc1csc([C@H]2CCC3[C@@H]4CC=C5C[C@@H](OC(C)=O)CC[C@]5(C)C4CC[C@@]32C)n1 (stereo not given in full) |  | > 55 µM | > 55 µM |

| Structure (SMILES) | outcome | EC50 | IC50 |
| --- | --- | --- | --- |
| CC(=O)O[C@H]1CCC2[C@@H]3CCC4=C(O)c5nocc5C[C@]4(C)C3CC[C@@]21C (stereo not given in full) |  | > 70.8 µM |  |
| O=[N+]([O-])/C(C(Cl)=C(Cl)Cl)=C(\SCc1ccccc1)N1CCCCC1 |  | > 200 µM | > 200 µM |
| O=c1[nH][nH]c(=O)c2nc(Nc3ccco3)ncc12 |  | > 240 µM | > 240 µM |
| CN(C)c1ccc(/C=C\C#N)cc1 |  | > 97.7 µM | > 97.7 µM |
| CCCCCCCCCCCCC(Br)C(=O)NCC(N)=O (stereo not given) | inactive |  |  |
| CCOC(=O)N1CCC2(CC1)CC(=O)N(Nc1ccccc1)C2=O |  | > 200 µM | 36.3 µM |
| COc1ccc(N2C(=O)c3cc(C)cnc3S2(=O)=O)cc1 |  | 141 µM | > 200 µM |
| CCn1cc(C(=O)O)c(=O)c2cccc(OC)c21 | inactive |  |  |
| O=S(=O)(O)c1cc(N=Nc2ccc(O)cc2)ccc1/C=C/c1ccc(N=Nc2ccc(O)cc2)cc1S(=O)(=O)O |  | > 50.1 µM | 45.7 µM |
| O=C1CSC(c2ccc([N+](=O)[O-])cc2)N1c1ccc(-n2c(-c3ccccc3)nc3ccccc3c2=O)cc1 (stereo not given) |  | > 200 µM | 129 µM |
| N#CN(CS(=O)(=O)O)C(=N)N |  | > 200 µM | > 200 µM |
| Nc1[nH]c(=O)nc(Nc2ccc(Cl)c(Cl)c2)c1N=O |  | > 200 µM | 13.5 µM |
| CC(C)(Oc1ccccc1)C(=O)Sc1c(-c2ccccc2)c(=O)n(-c2ccccc2)c(=S)n1-c1ccccc1 |  | > 200 µM | 1.35 µM |
| O=C1C2c3[nH]c4ccccc4c3C3CCCCCCC3C2C(=O)N1c1ccccc1 (stereo not given) | inactive |  |  |
| COc1ccc(/C=c2\sc3nnc(CCC(=O)Nc4cccc(C(F)(F)F)c4)n3c2=O)cc1 |  | > 7.59 µM | > 7.59 µM |
| CC(C)(C)C1(c2ccc(C3(c4ccccc4)Oc4ccccc4S3)[nH]2)Oc2ccccc2S1 (stereo not given) | inactive |  |  |
| O=C(Nc1ccc([N+](=O)[O-])cc1)C(=O)C(C(=O)c1ccccc1F)C1OC(=O)c2ccccc21 (stereo not given) |  | > 204 µM | 8.71 µM |
| O=C1C2CCN(CC2)C1Cn1cnc2c(Cl)ncnc21 (stereo not given) | inactive |  |  |
| O=C1N(c2ccccc2)N=C(c2ccccc2)C12CC2 |  | > 200 µM | 107 µM |
| CC1CCC2c3c([nH]c4ccccc34)C3C(=O)N(C4CCCCC4)C(=O)C3C2C1 (stereo not given) |  | > 200 µM | 9.33 µM |
| Cc1cc(C)nc(NS(=O)(=O)c2ccc(NC(=O)c3cccc4c(Nc5ccc(S(=O)(=O)N=C(N)N)cc5)c5ccc(Cl)cc5nc34)cc2)n1 |  | > 49 µM | > 49 µM |
| C1CCN(C2OC3C(COC3N3CCCCC3)OC2OC2CCO[C@@H]2N2CCCCC2)CC1 (stereo not given in full) |  | > 38.9 µM | 3.39 µM |

| Structure (SMILES) | outcome | EC50 | IC50 |
| --- | --- | --- | --- |
| COc1cc2c(cc1OC)C1c3ccccc3C(C#N)(C2)N(C(=O)c2ccccc2)C1O (stereo not given) | inactive |  |  |
| Cc1nc(N)nc(CCC(=O)Nc2cccc(C(F)(F)F)c2)c1-c1ccc(Cl)cc1 |  | > 302 µM | > 302 µM |
| CC1=C(C(=O)CC(=O)C(=O)Nc2cccc(Cl)c2C)Sc2ccccc2N1 |  | > 64.6 µM | > 64.6 µM |
| Cc1ccc(N=C(N)NC#N)cc1 |  | > 1450 µM | > 1450 µM |
| N#CC(/C(=N/NC(N)=S)C(=O)Nc1cccc(Cl)c1)c1ccccc1 (stereo not given) |  | > 19.5 µM | 10.5 µM |
| Cc1cn(C2C=CC(COP(=O)(OCC(=O)C(C)(C)C)OCC(=O)C(C)(C)C)O2)c(=O)[nH]c1=O (stereo not given) |  | 1.29 µM | > 200 µM |
| COc1ccc(S(=O)(=O)N(CC(=O)O)c2ccccc2)cc1 | inactive |  |  |
| Cc1c(O)ccc(N=O)c1O |  | > 200 µM | 123 µM |
| COc1cccc(NC(=O)CC(=O)n2nc(-c3ccccc3)c(N=Nc3ccc(Cl)cc3)c2-c2ccccc2)c1 |  | > 200 µM | 11.5 µM |
| c1ncn(C23C4C5C6C4C2C6C53)n1 (stereo not given) |  | > 200 µM | > 200 µM |
| Cc1ccc(C2=C(c3ccccc3)C(=O)C(c3ccccc3)=C2c2ccc(C)cc2)cc1 |  | > 87.1 µM | > 87.1 µM |
| CN(C)CC/C(=N\Nc1ccc(Cl)cc1Cl)c1ccccc1 | inactive |  |  |
| CC(=O)/C(=C/c1cccc(C#N)c1)C(=O)c1ccccc1 |  | > 36.3 µM | 17.4 µM |
| CN(C)c1nc2sc3c(c2c(=O)o1)CCCC3 |  | > 200 µM | 51.3 µM |
| NCCOCCOCC(=O)O | inactive |  |  |
| CCN1CCC(C)OP1(=O)Cc1ccccc1 (stereo not given) |  | > 200 µM | > 200 µM |
| COC(=O)CCn1cnc2c(SC)ncnc21 |  | > 200 µM | > 200 µM |
| CC1(C)NC(=O)C(NC(=O)C(N)CC(=O)O)CCCCNC(=O)CCNC1=O (stereo not given) (H-DK[Aib][βAla]; lactam 2-C; configuration not given here) |  | > 200 µM | > 200 µM |
| N#Cc1ccccc1NC(=O)C(=O)C(C(=O)c1ccncc1)C1OC(=O)c2ccccc21 (stereo not given) |  | > 589 µM | > 589 µM |
| C[C@H](CSC(=O)c1ccccc1)C(=O)N1c2ccccc2C[C@H]1C(=O)O |  | > 200 µM | 107 µM |
